Assay results taken from US12502386B2, “Nitrogen-containing heterocyclic compound and use thereof” (SHANGHAI SHIJIANG BIOTECHNOLOGY CO., LTD, priority 2022, dated 2025).
Read-outs that look alike come from different tables or passages of the source.

Key:
ov-NNMT NCI-H82 cell = experiment: CellTiter-Glo cell viability, ov-NNMT NCI-H82 cell (NNMT overexpressed); format: cell-based, human; conditions: intracellular ATP, read-out: inhibitory effect on OV-NNMT NCI-H82 (IC50)
CFPAC-1 = experiment: CellTiter-Glo cell viability, tumor cell line CFPAC-1; format: cell-based; conditions: CFPAC-1, 72 h; human pancreatic cancer cell; 3 days of culture; read-out: inhibitory effect on CFPAC-1 (IC50)
Description: (§1) Cell viability was detected using the Promega CellTiter-Glo kit, cell viability was determined by directly measuring intracellular ATP content. In the experiment, the IC50 value of the compounds prepared in the Examples of the present invention on various tumor cell lines was detected.
(§2) Each tumor cell was cultured in relevant medium. After cell passage, the gradient diluted compounds prepared in the Examples of the present invention was added. After 3 days of culture, the relevant IC50 (50% inhibiting concentration) was measured. The name, source and culture conditions of each tumor cell line were as follows:
Cell line CFPAC-1 (ATCC, No. CRL-1918) was cultured in 10% fetal bovine serum-containing IMDM medium (+P/S).

D341 Med = experiment: CellTiter-Glo cell viability, brain tumor cell line D341 Med; format: cell-based; conditions: Homo sapiens, 72 h, cerebellar medulloblastoma cell, 3 days of culture, read-out: inhibitory effect on D341 Med (IC50)
Description: (§3) Cell viability was detected using the Promega CellTiter-Glo kit, cell viability was determined by directly measuring intracellular ATP content. In the experiment, the IC50 value of the compounds prepared in the Examples of the present invention on various brain tumor cell lines was detected.
as §2
Cell line D341 Med (ATCC, No. HTB-187) was cultured in 20% fetal bovine serum-containing EMEM medium (+P/S).

sh-DNMT1 NCI-H82 cell = experiment: CellTiter-Glo cell viability, sh-DNMT1 NCI-H82 cell (DNMT1 knocked down); format: cell-based, human; conditions: Homo sapiens, NCI-H82, NCI-H82 with DNMT1 knocked down by shRNA, intracellular ATP, read-out: inhibitory effect on sh-DNMT1 NCI-H82 (IC50)
786-O = experiment: CellTiter-Glo cell viability, tumor cell line 786-O; format: cell-based; conditions: Homo sapiens, 786-0, 72 h; clear cell renal cell adenocarcinoma cell; 3 days of culture; read-out: inhibitory effect on 786-O (IC50)
Description: as §1, §2
Cell line 786-0 (ATCC, No. CRL-1932) was cultured in 10% fetal bovine serum-containing RPMI164B medium (+P/S).

SW48 = experiment: CellTiter-Glo cell viability, tumor cell line SW48; format: cell-based; conditions: SW48, 72 h; human colon adenocarcinoma cell; 3 days of culture; read-out: inhibitory effect on SW48 (IC50)
Description: as §1, §2
Cell line SW48 (ATCC, No. CCL-231) was cultured in 10% fetal bovine serum-containing Leibovitz's L-15 medium (+P/S).

NB-1 = experiment: CellTiter-Glo cell viability, brain tumor cell line NB-1; format: cell-based; conditions: Homo sapiens, NB1, 72 h; brain neuroblastoma cell; 3 days of culture; read-out: inhibitory effect on NB-1 (IC50)
Description: as §3
as §2, with “follows: […]” for “follows:”

Kelly = experiment: CellTiter-Glo cell viability, brain tumor cell line Kelly; format: cell-based; conditions: Homo sapiens, 72 h, brain neuroblastoma cell, 3 days of culture, read-out: inhibitory effect on Kelly (IC50)
Description: as §3, §2
Cell line Kelly (ECACC, No. 92110411) was cultured in 10% fetal bovine serum and 2 mM glutamine-containing RPMI1640 medium.

Con-NCI-H82 cell = experiment: CellTiter-Glo cell viability, Con-NCI-H82 cell (empty-vector control); format: cell-based, human; conditions: Homo sapiens, NCI-H82, NCI-H82 transfected with empty virus vector (control), intracellular ATP, read-out: inhibitory effect on Con-NCI-H82 (IC50)
GB-1 = experiment: CellTiter-Glo cell viability, tumor cell line GB-1; format: cell-based; conditions: GB-1, 72 h; human brain glioblastoma cell; 3 days of culture; read-out: inhibitory effect on GB-1 (IC50)
Description: as §1, §2
Cell line GB-1 (JCRB, No. IFO50489) was cultured in 10% fetal bovine serum-containing DMEM medium (+P/S).
as §3

SF-126 = experiment: CellTiter-Glo cell viability, tumor cell line SF-126; format: cell-based; conditions: SF-126, 72 h, read-out: inhibitory effect on SF-126 (IC50); human glioblastoma multiforme cell; 3 days of culture
Description: as §1, §2
Cell line SF126 (JCRB, No. IFO50286) was cultured in 10% fetal bovine serum-containing EMEM medium (+P/S).
as §3

G-401 = experiment: CellTiter-Glo cell viability, tumor cell line G-401; format: cell-based; conditions: G-401, 72 h; human renal carcinoma Wilms cell; 3 days of culture; read-out: inhibitory effect on G-401 (IC50)
Description: as §1, §2
Cell line G-401 (ATCC, No. CRL-1441) was cultured in 10% fetal bovine serum-containing McCoy's 5a medium (+P/S).

MDA-MB-453 = experiment: CellTiter-Glo cell viability, tumor cell line MDA-MB-453; format: cell-based; conditions: Homo sapiens, MDA-MB-453, 72 h; breast cancer cell; 3 days of culture; read-out: inhibitory effect on MDA-MB-453 (IC50)
Description: as §1
as §2, with “follows: […]” for “follows:”

NCI-H82 = experiment: CellTiter-Glo cell viability, tumor cell line NCI-H82; format: cell-based; conditions: NCI-H82, 72 h; human small cell lung cancer cell; 3 days of culture; read-out: inhibitory effect on NCI-H82 (IC50)
Description: as §1, §2
Cell line NCI-H82 (ATCC, No. HTB-175) was cultured in 10% fetal bovine serum-containing RPMI1640 medium (+P/S).

[1] = Homo sapiens, NCI-H82, NCI-H82 overexpressing NNMT protein

SMILES	IC50 (ov-NNMT NCI-H82 cell; [1]) [nM]	IC50 (CFPAC-1) [nM]	IC50 (D341 Med) [nM]	IC50 (sh-DNMT1 NCI-H82 cell) [nM]	IC50 (786-O) [nM]	IC50 (SW48) [nM]	IC50 (NB-1) [nM]	IC50 (Kelly) [nM]	IC50 (Con-NCI-H82 cell) [nM]	IC50 (GB-1) [nM]	IC50 (SF-126) [nM]	IC50 (G-401) [nM]	IC50 (MDA-MB-453) [nM]	IC50 (NCI-H82) [nM]	IC50 (ov-NNMT NCI-H82 cell; NCI-H82 overexpressing NNMT protein) [nM]
COc1ccc2c(c1OC)CN1CCc3cc4c(cc3C1=C2Cc1ccc(OC(F)(F)F)cc1)OCO4 [AB31866]	1860	12400	1540	3480	15600	1960	2190	1320	820	10500	20100	1080	2320	820	–
COc1ccc2c(c1OC)C(C1CCCCC1)N1CCc3cc4c(cc3C1=C2)OCO4 (centres unmarked) [AB31893]	4120	10900	1460	5680	9720	1850	1880	2090	1120	15500	12400	1440	1680	1120	–
COc1ccc2c(c1OC)C(C1CCCC1)N1CCc3cc4c(cc3C1=C2)OCO4 (centres unmarked) [AB31900]	–	18300	980	–	15700	1280	880	1120	–	> 30000	20100	1320	1460	1080	4880
COc1ccc2c(c1OC/C=C(\C)CCC=C(C)C)C(C(Cl)(Cl)Cl)N1CCc3cc4c(cc3C1=C2)OCO4 (centres unmarked) [AB35405]	2130	18300	760	3860	13100	2340	2460	3120	920	16000	20300	880	1760	920	–
COc1ccc2c(c1OC)C(C(Cl)(Cl)Cl)N1CCc3cc4c(cc3C1=C2CCCc1ccccc1)OCO4 (centres unmarked) [AB35417]	1780	9880	880	3120	10200	980	2390	1240	570	14100	12300	1110	1320	570	–
COc1ccc2c(c1OCCCCN)C(C)N1CCc3cc4c(cc3C1=C2)OCO4 (centres unmarked) [AB35429]	5320	13400	2020	5040	12500	1460	3450	3160	1890	18400	15400	2020	2430	1890	–
COc1ccc2c(c1OCCCBr)C(C1CCCC1)N1CCc3cc4c(cc3C1=C2)OCO4 (centres unmarked) [AB35430]	3180	12100	1320	6320	16100	1560	2550	2010	850	16900	23400	1320	960	850	–
COc1ccc2c(c1OCCCCl)C(C1CCCC1)N1CCc3cc4c(cc3C1=C2)OCO4 (centres unmarked) [AB35434]	5120	> 30000	3150	4980	22200	3050	2980	2460	1680	25700	> 30000	2640	2320	1680	–
COc1ccc2c(c1OC)C(C1CCCC1)N1CCc3cc4c(cc3C1=C2CCCc1ccccc1)OCO4 (centres unmarked) [AB35436]	3280	11400	1540	5320	15400	1560	2980	3120	1270	> 30000	22100	1890	1010	1270	–
COc1ccc2c(c1OCCCCl)C(C(Cl)(Cl)Cl)N1CCc3cc4c(cc3C1=C2)OCO4 (centres unmarked) [AB35441]	3210	12300	2320	2980	16500	1220	1980	3160	1010	24400	> 30000	1560	980	1010	–
COc1ccc2c(c1OCCCCOc1ccccc1)C(C(Cl)(Cl)Cl)N1CCc3cc4c(cc3C1=C2)OCO4 (centres unmarked) [AB35476]	3690	14200	890	4560	12300	1110	2460	1320	990	15800	18300	1320	850	990	–
CCCC1=C2c3cc4c(cc3CCN2C(C2CCCC2)c2c1ccc(OC)c2OC)OCO4 (centres unmarked) [AB35504]	4960	25600	1580	6760	20400	3560	3580	3030	2220	> 30000	> 30000	3120	1960	2220	–
CCCOc1c(OC)ccc2c1C(C(Cl)(Cl)Cl)N1CCc3cc4c(cc3C1=C2)OCO4 (centres unmarked) [AB35506]	2660	14100	1660	2520	10300	2130	3880	3590	830	25500	19900	1270	1560	830	–
COc1ccc2c(c1N1CCC(C)CC1)C(C1CCCC1)N1CCc3cc4c(cc3C1=C2)OCO4 (centres unmarked) [AB35510]	1560	13100	760	1860	24700	1990	1680	2020	310	14600	24300	1210	560	310	–
